Common to all, as to type: biochemical
The subject of one experiment is alkaline phosphatase. The experiment is described as follows: Hydrolysis of the phosphate substrate by alkaline phosphatase (KM, Kcat). The settings on record: 1.0M diethanolamine buffer (pH=9.8) containing 5.0 mM MgCl2.
The subject of experiment [1] is α-amylase. Nature of the experiment: Analytical test device for the detection of α-amylase, reflectance. Particulars: for Reactivity × 10^-2: linear regression of L(R) between 180 and 200 seconds, 630 nm. Here is the method: A sheet of Whatman 54 filter paper (Whatman, Inc., Clifton, N.J., U.S.A.) was immersed into a solution comprising the liquid α-amylase detection reagent prepared according to Example 10, 0.1% Triton X-100 (Sigma Chemical Co., St. Louis, Mo., U.S.A.) and 0.5% carboxycellulose, and dried.
Analytical test devices were prepared by mounting 0.5 cm wide×1.0 cm long segment of the aforementioned impregnated filter paper onto and along the edge of one surface of 0.5 cm×8.125 cm polystyrene supports (Tricite®, Dow Chemical Co., Midland, Mich., U.S.A.) previously laminated with a 2 mm strip of Double Stick® double-faced adhesive tape (3M Company, St. Paul, Minn., U.S.A.).
Three 30 μL aliquots of undiluted serum containing 39 IU/L, 78 IU/L, 117 IU/L, 157 IU/L, 235 IU/L, and 313 IU/L, respectively, of α-amylase were applied, independently, to a test device and the rate of color change produced by the liberated chromogen on each device was measured at 630 nm on a Seralyzer® reflectance photometer (Miles Inc., Elkhart, Ind., U.S.A.) from between 0 seconds and 240 seconds after the serum sample was added to each test device.

Experiment [2] concerns α-amylase. Nature of the experiment: Liquid analytical test system for the detection of α-amylase. The settings on record: for Absorbance (634 nm): 37° C.; for Absorbance/Minute: average of three consecutive readings between 3 and 6 minutes. Here is the method:
A liquid α-amylase detection reagent was prepared by combining 1.8 mM DMA-G7 (43) prepared according to Example 9, 38 units of α-glucosidase and 20 units of β-glucosidase in 1.0 mL of buffered solution comprising 50 mM PIPES, 50 mM NaCl, and 5.0 mM calcium chloride (pH 7.0). Amylase control serum (0.025 mL) containing 37 IU/L, 175 IU/L, and 313 IU/L, respectively, of α-amylase were added to the detection reagent, independently, and incubated at 37° C. The enzymatic action of α-amylase on the substrate compound in each of the mixtures liberated shorter chain chromogenic maltooligosaccharide compounds thereof (e.g., DMA-G2 to DMA-G4) which, in turn, was enzymatically acted upon by the α-glucosidase and β-glucosidaseto liberate the optically active form of the dimethyl acridinone chromogen (20). The rate of color change produced by the liberated chromogen in each of the mixtures was measured at 634 nm on a Cary 219 spectrophotometer (Varian Associates, Inc., Sonnyvale, Calif., U.S.A.) from between 1 and 9 minutes after each of the serum samples were added to the detection reagent (Table 2).

Several values for one entry are separate records, joined by “and”; a condition that tells them apart may be missing. Equal values may be shown once.

Results on 2 compounds are retold here after patent publication US4810636A, “Chromogenic acridinone enzyme substrates” (Miles Inc., priority 1987, dated 1989).

As for `CC1(C)C2=CC(=O)C=CC2=Nc2ccc(OP(=O)(O)O)cc21` [Compound 37, disodium-9,9-dimethyl-9H-acridin-2-one-7-phosphate], in the experiment on alkaline phosphatase, the Kcat was 1.94×10^5 mol/min/mol of enzyme and the Km – broadly, the concentration of substrate that gives half-maximal velocity – amounted to 480 µM.

For the compound `CC1(C)C2=CC(=O)C=CC2=Nc2ccc(O[C@@H]3O[C@H](CO)[C@@H](O[C@H]4O[C@H](CO)[C@@H](O[C@H]5O[C@H](CO)[C@@H](O[C@H]6O[C@H](CO)[C@@H](O[C@H]7O[C@H](CO)[C@@H](O[C@H]8O[C@H](CO)[C@@H](O[C@H]9O[C@H](CO)[C@@H](O)[C@H](O)[C@H]9O)[C@H](O)[C@H]8O)[C@H](O)[C@H]7O)[C@H](O)[C@H]6O)[C@H](O)[C@H]5O)[C@H](O)[C@H]4O)[C@H](O)[C@H]3O)cc21` [DMA-G7, 7-β-maltoheptaosyloxy-9,9-dimethyl-acridin-2-one], in the experiment on α-amylase [1] (39-313 IU/L α-amylase in undiluted serum), the “dose response to α-amylase” value is given as “linear dose response”. The “Reactivity × 10^-2” value in the experiment with α-amylase [1] (39 IU/L α-amylase serum) was 0.384 × 10^-2 and 0.373 × 10^-2 and 0.359 × 10^-2; in the experiment with α-amylase [1] (78 IU/L α-amylase serum), 0.957 × 10^-2 and 0.941 × 10^-2 and 0.954 × 10^-2; with α-amylase [1] (117 IU/L α-amylase serum), 1.450 × 10^-2 and 1.510 × 10^-2 and 1.430 × 10^-2; with α-amylase [1] (157 IU/L α-amylase serum), 1.781 × 10^-2 and 1.999 × 10^-2 and 1.886 × 10^-2; with α-amylase [1] (235 IU/L α-amylase serum), 2.560 × 10^-2 and 2.596 × 10^-2 and 2.610 × 10^-2; with α-amylase [1] (313 IU/L α-amylase serum), 2.961 × 10^-2 and 2.989 × 10^-2 and 2.916 × 10^-2. In addition, the “dose response to the α-amylase concentration” value in the experiment on α-amylase [2] (37-313 IU/L, readings between 3 and 6 minutes) is listed as “linear dose response”. For the same compound, the “Absorbance (634 nm)” value in the experiment on α-amylase [2] (37 IU/L α-amylase, 1 minute) turned out to be 0.123; with α-amylase [2] (37 IU/L α-amylase, 2 minutes), 0.129; in the experiment with α-amylase [2] (37 IU/L α-amylase, 3 minutes), 0.138; with α-amylase [2] (37 IU/L α-amylase, 4 minutes) it was 0.148; with α-amylase [2] (37 IU/L α-amylase, 5 minutes) it was 0.160; in the experiment with α-amylase [2] (37 IU/L α-amylase, 6 minutes), 0.172. Also, the “Absorbance (634 nm)” value in the experiment with α-amylase [2] (37 IU/L α-amylase, 7 minutes) is 0.187; in the experiment with α-amylase [2] (37 IU/L α-amylase, 8 minutes), 0.202; in the experiment with α-amylase [2] (37 IU/L α-amylase, 9 minutes) it was 0.218; in the experiment on α-amylase [2] (175 IU/L α-amylase, 1 minute) it was 0.150; with α-amylase [2] (175 IU/L α-amylase, 2 minutes) it was 0.178; in the experiment with α-amylase [2] (175 IU/L α-amylase, 3 minutes), 0.223. Moreover, the “Absorbance (634 nm)” value turned out to be 0.279 in the experiment on α-amylase [2] (175 IU/L α-amylase, 4 minutes); 0.341 in the experiment on α-amylase [2] (175 IU/L α-amylase, 5 minutes); 0.409 in the experiment with α-amylase [2] (175 IU/L α-amylase, 6 minutes); 0.481 in the experiment on α-amylase [2] (175 IU/L α-amylase, 7 minutes); 0.555 in the experiment on α-amylase [2] (175 IU/L α-amylase, 8 minutes); 0.631 with α-amylase [2] (175 IU/L α-amylase, 9 minutes). Besides, the “Absorbance (634 nm)” value in the experiment with α-amylase [2] (313 IU/L α-amylase, 1 minute) is recorded as 0.171; in the experiment on α-amylase [2] (313 IU/L α-amylase, 2 minutes), 0.212; in the experiment with α-amylase [2] (313 IU/L α-amylase, 3 minutes), 0.282; in the experiment with α-amylase [2] (313 IU/L α-amylase, 4 minutes), 0.372; in the experiment with α-amylase [2] (313 IU/L α-amylase, 5 minutes), 0.474; in the experiment on α-amylase [2] (313 IU/L α-amylase, 6 minutes), 0.585. Further, the “Absorbance (634 nm)” value amounted to 0.702 in the experiment on α-amylase [2] (313 IU/L α-amylase, 7 minutes); 0.823 in the experiment with α-amylase [2] (313 IU/L α-amylase, 8 minutes); 0.948 with α-amylase [2] (313 IU/L α-amylase, 9 minutes). Further, the Absorbance/Minute was 0.011 in the experiment on α-amylase [2] (37 IU/L α-amylase), 0.062 with α-amylase [2] (175 IU/L α-amylase) and 0.109 in the experiment with α-amylase [2] (313 IU/L α-amylase).
